“And” between values parts separate entries of the source, which are not always exact repeats. Equal values may be shown once.
Assays:
[1] = test system: HeLa; details: bulk resorufin, single well, 28.5 h, 10 µM, Bulk resorufin fluorescence
[2] = in vitro; details: human, hela cells, % viability

Compound | % viability [1] | viability at 28.5 h, 10 µM [2] [%]
CNC1=NC2CCCCC2O1 (stereo not drawn) [CBK023075F] | 111% | 117
Cc1sc(NC(=O)C(F)(F)F)c(C(N)=O)c1C [CBK027775] | 94.1% | 99.4
O=C(CSC1=NCCS1)Nc1ccnc2ccccc12 [CBK112077] | 98.9% | 101
Cc1ccc(-c2csc3c(=O)[nH]c(N4CCC5(CC4)OCCO5)nc23)cc1 [CBK288034] | 92.2% | 83.9
Cc1c(S(=O)(=O)NCCN2CCNC2=O)cnn1-c1ccccc1 [CBK062603] | 99.3% | 117
CC1CCCN(Cc2c([C@H]3CCCO3)[nH]c3ncccc23)C1 (stereo partly drawn) [CBK282287] | 106% | 110
CC[C@H](Cn1ncc2ccccc2c1=O)NC(=O)C1CCCC1 [CBK284302] | 102% | 94.2
C[C@@H]1CN2CCCC2CN1Cc1cccs1 (stereo partly drawn) [CBK284550] | 98.3% | 85.6
CCOC(=O)N1CCC(NS(=O)(=O)c2ccc(Oc3ccccc3)cc2)CC1 [CBK045469] | 97.7% | 98.4
COc1nccc(NC(c2cnn(C)c2)[C@H]2C[C@H](O)C2)c1C#N (stereo partly drawn) [CBK307283] | 91.1% | 94
C[C@@H]1CN2CCCC2CN1Cc1ccsc1 (stereo partly drawn) [CBK285411] | 109% | 110
CC(=O)Nc1ccc(NS(=O)(=O)c2ccc(O)c(C(=O)O)c2)cc1 [CBK092150] | 96.9% | 115
CC[C@H](Cn1ncc2ccccc2c1=O)NC(=O)c1ccco1 [CBK284300] | 86.8% | 78.6
O=C(C1CC1)N1C2CCC(C2)[C@H]1COc1ccc(F)cc1 (stereo partly drawn) [CBK284597] | 100% | 95
CCOc1ccc(CCN2C(=O)CN=C2S)cc1OCC [CBK288528] | 98.3% | 103
C[C@@H](Cn1nnc2ccccc21)NC(=O)c1ccco1 [CBK284319] | 86.3% | 75.9
CCN(CC)CCNC(=O)/C(=N\O)c1ccccn1 [CBK264538] | 93.9% | 90.6
CC(C)[C@H](Cn1nc(C2CC2)ccc1=O)NC(=O)C1CCC1 [CBK282367] | 91.4% | 85.1
CC(=O)n1cc(C2C(=O)NN=C2C)c2ccccc21 (stereo not drawn) [CBK083563] | 82.3% | 102
O=C(O)c1cc(-c2ccccc2)c2c(=O)[nH][nH]c2n1 [CBK286631] | 102% and 88.2% | 105
CC[C@@H](Cn1ncc2ccccc2c1=O)NC(=O)C1CCC1 [CBK282384] | 82% | 93.4
Clc1ccc(COc2cncc(OC3CCN(CCN4CCOCC4)C3)n2)cc1Cl (stereo not drawn) [CBK084433] | 100% | 87
NCCc1c(C23CC4CC(CC(C4)C2)C3)[nH][nH]c1=O [CBK288081] | 106% | 86.5
O=C(O)CCNc1c(C(=O)O)cnc2ccccc12 [CBK261139] | 89% | 83.3

— PMC12040169 (PLOS Biology, 2025)
